Experimental findings from patent US6667312B2, “Thioether substituted imidazoquinolines” (3M Innovative Properties Company, priority 2000, dated 2003) are described below.

Data set [1] concerns interferon (α). Briefly: Cytokine Induction in Human Cells: interferon. Type of data set: cell-based. The settings on record: human PBMC, 18 to 24 hours, tested 30-0.014 μM, interferon (α) by ELISA; read-out: Lowest Effective Concentration (μM) Interferon. From the text:
(§1) An in vitro human blood cell system is used to assess cytokine induction. Activity is based on the measurement of interferon and tumor necrosis factor (α) (IFN and TNF, respectively) secreted into culture media as described by Testerman et. al. In “Cytokine Induction by the Immunomodulators Imiquimod and S-27609”, Journal of Leukocyte Biology, 58, 365-372 (September, 1995).
(§2) Whole blood from healthy human donors is collected by venipuncture into EDTA vacutainer tubes. Peripheral blood mononuclear cells (PBMC) are separated from whole blood by density gradient centrifugation using Histopaque®-1077. Blood is diluted 1:1 with Dulbecco's Phosphate Buffered Saline (DPBS) or Hank's Balanced Salts Solution (HBSS). The PBMC layer is collected and washed twice with DPBS or HBSS and resuspended at 4×10^6 cells/mL in RPMI complete. The PBMC suspension is added to 48 well flat bottom sterile tissue culture plates (Costar, Cambridge, Mass. or Becton Dickinson Labware, Lincoln Park, N.J.) containing an equal volume of RPMI complete media containing test compound.
(§3) The compounds are solubilized in dimethyl sulfoxide (DMSO). The DMSO concentration should not exceed a final concentration of 1% for addition to the culture wells. The compounds are generally tested at concentrations ranging from 30-0.014 μM.
(§4) The solution of test compound is added at 60 μM to the first well containing RPMI complete and serial 3 fold dilutions are made in the wells. The PBMC suspension is then added to the wells in an equal volume, bringing the test compound concentrations to the desired range (30-0.014 μM). The final concentration of PBMC suspension is 2×10^6 cells/mL. The plates are covered with sterile plastic lids, mixed gently and then incubated for 18 to 24 hours at 37° C. in a 5% carbon dioxide atmosphere.
(§5) Following incubation the plates are centrifuged for 10 minutes at 1000 rpm (˜200× g) at 4° C. The cell-free culture supernatant is removed with a sterile polypropylene pipet and transferred to sterile polypropylene tubes. Samples are maintained at −30 to −70° C. until analysis. The samples are analyzed for interferon (α) by ELISA and for tumor necrosis factor (α) by ELISA or IGEN Assay
Interferon (α) concentration is determined by ELISA using a Human Multi-Species kit from PBL Biomedical Laboratories, New Brunswick, N.J. Results are expressed in pg/mL.
(§6) The table below lists the lowest concentration found to induce interferon and the lowest concentration found to induce tumor necrosis factor for each compound.
Background: An ELISA detects its analyte on a solid surface through an enzyme-linked reagent.

The test system of data set [2] is tumor necrosis factor (α). Briefly: Cytokine Induction in Human Cells: tumor necrosis factor. Type of data set: cell-based. Conditions: human PBMC, 18 to 24 hours, tested 30-0.014 μM, TNF by ELISA or IGEN assay; for minimal effective concentration: read-out: Lowest Effective Concentration (μM) Tumor Necrosis Factor. Further details: key to Lowest Effective Concentration (μM) Tumor Necrosis Factor: A “*” indicates that no induction was seen at any of the tested concentrations.
Description: as §1, §2, §3, §4, §5
Tumor necrosis factor (α) (TNF) concentration is determined using ELISA kits available from Biosource International, Camarillo, Calif. Alternately, the TNF concentration can be determined by Origen® M-Series Immunoassay and read on an IGEN M-8 analyzer from IGEN International, Gaithersburg, Md. The immunoassay uses a human TNF capture and detection antibody pair from Biosource International, Camarillo, Calif. Results are expressed in pg/mL.
as §6

As a reminder, the melting point is the temperature, or range, at which the solid turns liquid.

As for `CCCCc1nc2c(N)nc3ccccc3c2n1CCCCSc1ccccc1` [Example 1, 2-butyl-1-[4-(phenylthio)butyl]-1H-imidazo[4,5-c]quinolin-4-amine], the melting point is 118 to 120 °C. The minimal effective concentration in data set [1] was 0.12 µM. The minimal effective concentration in data set [2] was 0.12 µM.

`CCCCc1nc2c(N)nc3ccccc3c2n1CCCCS(=O)(=O)c1ccccc1` [Example 3, 2-butyl-1-[4-(phenylsulfonyl)butyl]-1H-imidazo[4,5-c]quinolin-4-amine] returned a melting point of 179 to 180 °C. Besides, the minimal effective concentration in data set [1] amounted to 0.04 µM. The minimal effective concentration in data set [2] was 0.12 µM.

Molecule `CCCCc1nc2c(N)nc3ccccc3c2n1CCCCSC` [Example 4, 2-butyl-1-[4-(methylthio)butyl]-1H-imidazo[4,5-c]quinolin-4-amine] yielded a melting point of 127 to 130 °C. Also, the minimal effective concentration in data set [1] was found to be 0.01 µM. Besides, the minimal effective concentration in data set [2] is 0.01 µM.

With `CCCCc1nc2c(N)nc3ccccc3c2n1CCCCS(C)(=O)=O` [Example 5, 2-butyl-1-[4-(methylsulfonyl)butyl]-1H-imidazo[4,5-c]quinolin-4-amine], the melting point is 164 to 165 °C. Moreover, the minimal effective concentration in data set [1] stood at 0.01 µM. The minimal effective concentration in data set [2] worked out at 0.04 µM.

In turn, `Nc1nc2ccccc2c2c1ncn2CCSc1ccccc1` [Example 6, 1-[2-(phenylthio)ethyl]-1H-imidazo[4,5-c]quinolin-4-amine] yielded a melting point of 233 to 235 °C. Also, in data set [1], the minimal effective concentration stood at 3.33 µM. Also, in data set [2], the minimal effective concentration came to 10 µM.

On to `Nc1nc2ccccc2c2c1ncn2CCCCS(=O)(=O)c1ccccc1` [Example 7, 1-[4-(phenylsulfonyl)butyl]-1H-imidazo[4,5-c]quinolin-4-amine], for which the melting point was 175 to 177 °C. Besides, the minimal effective concentration in data set [1] stood at 3.33 µM. The minimal effective concentration in data set [2] was 10 µM.

As for `CS(=O)(=O)CCCCn1cnc2c(N)nc3ccccc3c21` [Example 8, 1-[4-(methylsulfonyl)butyl]-1H-imidazo[4,5-c]quinolin-4-amine], the melting point lay within 203 to 204 °C. In data set [1], the minimal effective concentration is 10 µM. Besides, in data set [2], the “Lowest Effective Concentration (μM) Tumor Necrosis Factor” value is given as “*”.

As to `Nc1nc2ccccc2c2c1ncn2CCCCSc1ccccc1` [Example 9, 1-[4-(phenylthio)butyl]-1H-imidazo[4,5-c]quinolin-4-amine], the melting point lay in the range of 158 to 160 °C. In addition, the minimal effective concentration in data set [1] turned out to be 3.33 µM. For the same molecule, the minimal effective concentration in data set [2] worked out at 3.33 µM.

As for `CSCCCCn1cnc2c(N)nc3ccccc3c21` [Example 10, 1-[4-(methylthio)butyl]-1H-imidazo[4,5-c]quinolin-4-amine], the melting point is 163 to 164 °C. Also, the minimal effective concentration in data set [1] turned out to be 1.11 µM. Moreover, the minimal effective concentration in data set [2] was 1.11 µM.

Molecule `Cc1nc2c(N)nc3ccccc3c2n1CCCCCS(C)(=O)=O` [Example 12, 2-methyl-1-[5-(methylsulfonyl)pentyl]-1H-imidazo[4,5-c]quinolin-4-amine] displayed a melting point of 235 to 240 °C. Besides, in data set [1], the minimal effective concentration stood at 0.12 µM. Moreover, the minimal effective concentration in data set [2] was found to be 10 µM.

As for `CS(=O)(=O)CCCCCn1cnc2c(N)nc3ccccc3c21` [Example 14, 1-[5-(methylsulfonyl)pentyl]-1H-imidazo[4,5-c]quinolin-4-amine], the melting point was in the range of 199 to 201 °C. Moreover, the minimal effective concentration in data set [1] is 3.33 µM. Besides, the minimal effective concentration in data set [2] was 10 µM.

With `CCCCCCc1nc2c(N)nc3ccccc3c2n1CCCCCS(C)(=O)=O` [Example 15, 2-hexyl-1-[5-(methylsulfonyl)pentyl]-1H-imidazo[4,5-c]quinolin-4-amine], the melting point lay within 168 to 171 °C. Moreover, the minimal effective concentration in data set [1] is 0.04 µM. In addition, the “Lowest Effective Concentration (μM) Tumor Necrosis Factor” value in data set [2] is listed as “*”.

`COCCc1nc2c(N)nc3ccccc3c2n1CCCCCS(C)(=O)=O` [Example 16, 2-(2-methoxyethyl)-1-[5-(methylsulfonyl)pentyl]-1H-imidazo[4,5-c]quinolin-4-amine] came in with a melting point of 158 to 160 °C. Moreover, the minimal effective concentration in data set [1] turned out to be 0.01 µM. In addition, in data set [2], the minimal effective concentration stood at 0.04 µM.

The molecule `CCCCc1nc2c(N)nc3ccccc3c2n1CCCCCSC` [Example 17, 2-butyl-1-[5-(methylthio)pentyl]-1H-imidazo[4,5-c]quinolin-4-amine] gave a melting point of 112 to 114 °C. Moreover, the minimal effective concentration in data set [1] was 0.01 µM. Besides, in data set [2], the minimal effective concentration is 0.04 µM.

As to `CCCCc1nc2c(N)nc3ccccc3c2n1CCCCC[S+](C)[O-]` (stereo not drawn) [Example 18, 2-butyl-1-[5-(methylsulfinyl)pentyl]-1H-imidazo[4,5-c]quinolin-4-amine], the melting point lay in the range of 119 to 121 °C. Besides, the minimal effective concentration in data set [1] amounted to 0.01 µM. Also, the minimal effective concentration in data set [2] turned out to be 0.12 µM.

`CCCCc1nc2c(N)nc3ccccc3c2n1CCCS(C)(=O)=O` [Example 19, 2-butyl-1-[3-(methylsulfonyl)propyl]-1H-imidazo[4,5-c]quinolin-4-amine]: the melting point was in the range of 233 to 236 °C. Also, the minimal effective concentration in data set [1] came to 0.04 µM. The minimal effective concentration in data set [2] turned out to be 0.37 µM.

Molecule `CCCCc1nc2c(N)nc3ccccc3c2n1CCCS(=O)(=O)c1ccccc1` [Example 20, 2-butyl-1-[3-(phenylsulfonyl)propyl]-1H-imidazo[4,5-c]quinolin-4-amine] came in with a melting point of 224 to 227 °C. The minimal effective concentration in data set [1] is 0.04 µM. Moreover, in data set [2], the minimal effective concentration turned out to be 0.37 µM.

As for `CCCc1nc2c(N)nc3ccccc3c2n1CCCCCS(C)(=O)=O` [Example 21, 1-[5-(methylsulfonyl)pentyl]-2-propyl-1H-imidazo[4,5-c]quinolin-4-amine], the melting point was 179 to 181 °C. Also, the minimal effective concentration in data set [1] came to 0.12 µM. In addition, in data set [2], the minimal effective concentration is 0.37 µM.

`CSCCCn1c(C)nc2c(N)nc3ccccc3c21` [Example 22, 2-methyl-1-[3-(methylthio)propyl]-1H-imidazo[4,5-c]quinolin-4-amine] registered a melting point of 199 to 202 °C. Moreover, in data set [1], the minimal effective concentration was determined as 0.37 µM. The minimal effective concentration in data set [2] turned out to be 1.11 µM.

Turning to `Cc1nc2c(N)nc3ccccc3c2n1CCCS(C)(=O)=O` [Example 23, 2-methyl-1-[3-(methylsulfonyl)propyl]-1H-imidazo[4,5-c]quinolin-4-amine], the melting point was in the range of 225 to 228 °C. In addition, in data set [1], the minimal effective concentration is 3.33 µM. For the same molecule, in data set [2], the minimal effective concentration worked out at 10 µM.

As to `CCc1nc2c(N)nc3ccccc3c2n1CCCSC` [Example 24, 2-ethyl-1-[3-(methylthio)propyl]-1H-imidazo[4,5-c]quinolin-4-amine], the melting point is 210 to 212 °C. Besides, the minimal effective concentration in data set [1] was 0.12 µM. In addition, the minimal effective concentration in data set [2] is 0.37 µM.

In turn, `Cc1nc2c(N)nc3c(c2n1CCCCS(=O)(=O)c1ccc(F)cc1)CCCC3` [Example 77, 2-methyl-1-{4-[(4-fluorophenyl)sulfonyl]butyl}-6,7,8,9-tetrahydro-1H-imidazo[4,5-c]quinolin-4-amine] yielded a melting point of 159 to 162 °C.

As to `Cc1nc2c(N)nc3c(c2n1CCCCS(=O)(=O)C(C)(C)C)CCCC3` [Example 78, 2-methyl-1-{4-[(1,1-dimethylethyl)sulfonyl]butyl}-6,7,8,9-tetrahydro-1H-imidazo[4,5-c]quinolin-4-amine], the melting point fell in the range of 208 to 210 °C.

Molecule `CCOCc1nc2c(N)nc3c(c2n1CCCCS(C)(=O)=O)CCCC3` [Example 79, 2-ethoxymethyl-1-(4-methanesulfonyl-butyl)-6,7,8,9-tetrahydro-1H-imidazo[4,5-c]quinolin-4-amine] had a melting point of 170 to 171 °C.
